According to US20160166570A1, “TREATMENT OR PREVENTION OF NON-INFLAMMATORY NEURONAL DAMAGE FROM BRAIN TRAUMA AND STROKES USING MENTHOL, LINALOOL AND/OR ICILIN” (NESTEC S.A., priority 2013, published 2016):

What was measured:
[1] = test system: Lateral Amygdala glutamatergic neuron; assay: whole cell, current clamp recordings, square pulse at high depolarization, mouse brain slice; assay type: cell-based; conditions: for action potentials at higher stimulation levels / amount of current required to trigger an action potential / threshold to trigger an action potential: as summarised from the experimental results; for amount of current required to trigger an action potential / threshold to trigger an action potential: neocortex; for inactivation of the sodium fast channels / further neuronal firing relative to control: square pulse of 2.5s at high depolarization of membrane potential (approximately −30 mV), FIG. 2
Source text: (§1) A mouse brain slice was used to study the damage from Menthol, Linalool and Icilin. The amygdaloid complex is located within the medial temporal lobe in neocortex and amygdala. The lateral and basolateral nuclei of the amygdaloid complex receive sensory information from cortical and thalamic structures, process the information, and then transmit the information, either directly or through the basal nucleus, to the central nucleus. For experimental analysis of neuronal activity, synaptic responses from the basolateral complex can be evoked electrically using electrodes, and the action potentials can be measured. […] A square pulse of 2.5s was applied at high depolarization of membrane potential (approximately −30 mV).

[2] = test system: Lateral Amygdala glutamatergic neuron; assay: whole cell, current clamp recordings with increasing concentration of gabazine (spontaneous action potential bursts), mouse brain slice; assay type: cell-based; conditions: Menthol 250 μM extracellularly 10 minutes previous to and during increasing concentrations of gabazine; recordings of 5 min, washout 10 min; FIG. 5 vs FIG. 3
Source text: as §1, with “As shown, neurons spontaneously present action” for “A square pulse of 2.5s was applied at high depolarization of membrane”, “bursts due to massive presynaptic discharges.” for “(approximately −30 mV).”

In the case of O=C1NC(c2cccc([N+](=O)[O-])c2)=CCN1c1ccccc1O [Icilin], the “action potentials at higher stimulation levels” value (“action potentials” for short) [1] is reported as “abort action potentials at higher stimulation levels”, the “amount of current required to trigger an action potential” value (“amount of current required” below) [1] is reported as “increase the amount of current required to trigger an action potential” and the “threshold to trigger an action potential” value [1] is reported as “increase the threshold to trigger an action potential”. For the same compound, the “inactivation of the sodium fast channels / further neuronal firing relative to control” value [1] was “inactivation of the sodium fast channels happens sooner relative to control”.
With C=CC(C)(O)CCC=C(C)C (stereo not shown) [Linalool] the “action potentials” value [1] was “abort action potentials at higher stimulation levels”, the “amount of current required” value [1] was “increase the amount of current required to trigger an action potential” and the “threshold to trigger an action potential” value [1] was “increase the threshold to trigger an action potential”. For the same compound, the “inactivation of the sodium fast channels / further neuronal firing relative to control” value [1] was “inactivation of the sodium fast channels happens sooner relative to control”.
For CC1CCC(C(C)C)C(O)C1 (stereo not shown) [Menthol], the “spontaneous action potential bursts under gabazine” value [2] was “complete absence or a strongly decreased presence of spontaneous bursts”, the “action potentials” value [1] was “abort action potentials at higher stimulation levels” and the “amount of current required” value [1] was “increase the amount of current required to trigger an action potential”. The “threshold to trigger an action potential” value [1] was “increase the threshold to trigger an action potential” and the “inactivation of the sodium fast channels / further neuronal firing relative to control” value [1] was “inactivation of the sodium fast channels happens sooner relative to control”.
